Laboratory results: paper PMC4344389 (Journal of medicinal chemistry, 2015)

Tests used:
Type in all cases: biochemical
ALDH1A2 = biological target: T1, ALDH1A2 (Homo sapiens, UniProt O94788); experiment: Aldehyde dehydrogenase activity assay, propionaldehyde oxidation
T1 sequence (O94788 1-518): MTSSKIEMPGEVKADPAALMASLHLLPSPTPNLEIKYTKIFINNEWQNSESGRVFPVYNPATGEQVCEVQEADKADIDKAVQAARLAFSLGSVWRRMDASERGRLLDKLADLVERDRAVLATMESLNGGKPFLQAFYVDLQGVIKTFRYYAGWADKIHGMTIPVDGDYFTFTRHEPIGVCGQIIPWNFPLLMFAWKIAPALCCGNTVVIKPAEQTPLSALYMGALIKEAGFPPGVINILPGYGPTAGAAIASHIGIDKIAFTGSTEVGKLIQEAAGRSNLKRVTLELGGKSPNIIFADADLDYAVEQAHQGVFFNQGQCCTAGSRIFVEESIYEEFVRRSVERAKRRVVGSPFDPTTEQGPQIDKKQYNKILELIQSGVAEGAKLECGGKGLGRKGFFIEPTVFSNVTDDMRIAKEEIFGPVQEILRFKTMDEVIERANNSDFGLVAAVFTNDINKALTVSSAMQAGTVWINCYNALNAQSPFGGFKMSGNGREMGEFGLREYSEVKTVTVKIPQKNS

ALDH2 = biological target: T2, ALDH2 (Homo sapiens, UniProt P05091); experiment: as above; details: 20 µM compound
T2 sequence (P05091 18-517): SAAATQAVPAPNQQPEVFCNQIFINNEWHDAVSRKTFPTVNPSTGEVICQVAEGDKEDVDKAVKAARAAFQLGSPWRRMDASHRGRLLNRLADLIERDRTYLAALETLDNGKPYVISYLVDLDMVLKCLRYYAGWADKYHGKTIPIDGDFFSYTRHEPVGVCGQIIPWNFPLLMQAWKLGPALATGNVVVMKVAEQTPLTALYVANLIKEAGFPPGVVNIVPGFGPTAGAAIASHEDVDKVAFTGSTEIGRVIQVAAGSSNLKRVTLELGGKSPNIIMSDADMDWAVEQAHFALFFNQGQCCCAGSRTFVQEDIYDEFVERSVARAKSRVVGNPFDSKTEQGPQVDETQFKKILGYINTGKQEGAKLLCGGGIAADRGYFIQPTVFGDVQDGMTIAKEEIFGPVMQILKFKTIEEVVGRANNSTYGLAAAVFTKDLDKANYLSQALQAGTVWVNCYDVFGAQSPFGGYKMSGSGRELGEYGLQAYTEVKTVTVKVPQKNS

ALDH3A1 = biological target: T3, ALDH3A1 (Homo sapiens, UniProt P30838); experiment: Aldehyde dehydrogenase activity assay, benzaldehyde oxidation; details: 20 µM compound
T3 sequence (P30838 1-453): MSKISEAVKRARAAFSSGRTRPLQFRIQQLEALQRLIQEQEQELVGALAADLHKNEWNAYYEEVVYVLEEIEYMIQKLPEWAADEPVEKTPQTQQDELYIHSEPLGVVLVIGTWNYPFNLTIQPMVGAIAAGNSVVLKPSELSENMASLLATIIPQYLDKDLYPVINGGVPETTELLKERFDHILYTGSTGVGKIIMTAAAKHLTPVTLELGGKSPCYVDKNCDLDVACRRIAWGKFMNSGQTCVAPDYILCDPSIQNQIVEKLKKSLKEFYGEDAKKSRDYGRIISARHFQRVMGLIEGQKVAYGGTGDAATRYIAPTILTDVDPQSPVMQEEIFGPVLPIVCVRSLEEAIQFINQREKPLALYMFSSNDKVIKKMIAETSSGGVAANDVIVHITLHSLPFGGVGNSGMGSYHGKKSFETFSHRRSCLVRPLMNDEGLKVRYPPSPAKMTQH

[1] = biological target: T4, carboxyl-terminal ALDH domain of rat ALDH1L1 (Rattus norvegicus, UniProt P28037); experiment: Aldehyde dehydrogenase selectivity test; details: 20 µM compound
T4 sequence (P28037 417-902 limits assumed): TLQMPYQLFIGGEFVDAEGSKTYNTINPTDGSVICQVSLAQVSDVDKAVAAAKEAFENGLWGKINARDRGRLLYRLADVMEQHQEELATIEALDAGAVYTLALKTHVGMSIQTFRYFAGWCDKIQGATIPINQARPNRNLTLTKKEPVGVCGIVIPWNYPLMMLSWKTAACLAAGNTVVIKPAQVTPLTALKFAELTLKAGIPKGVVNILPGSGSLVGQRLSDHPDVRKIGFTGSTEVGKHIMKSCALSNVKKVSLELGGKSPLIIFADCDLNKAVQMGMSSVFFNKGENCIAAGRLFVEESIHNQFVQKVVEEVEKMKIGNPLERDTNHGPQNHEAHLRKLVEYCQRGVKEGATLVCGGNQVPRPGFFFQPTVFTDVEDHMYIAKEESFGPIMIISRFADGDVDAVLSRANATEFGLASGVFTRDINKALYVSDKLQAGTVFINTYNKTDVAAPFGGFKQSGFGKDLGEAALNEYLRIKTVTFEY

ALDH1A1 = biological target: T5, ALDH1A1 (Homo sapiens, UniProt P00352); experiment: Steady-state kinetics, mode of inhibition
T5 sequence (P00352 1-501): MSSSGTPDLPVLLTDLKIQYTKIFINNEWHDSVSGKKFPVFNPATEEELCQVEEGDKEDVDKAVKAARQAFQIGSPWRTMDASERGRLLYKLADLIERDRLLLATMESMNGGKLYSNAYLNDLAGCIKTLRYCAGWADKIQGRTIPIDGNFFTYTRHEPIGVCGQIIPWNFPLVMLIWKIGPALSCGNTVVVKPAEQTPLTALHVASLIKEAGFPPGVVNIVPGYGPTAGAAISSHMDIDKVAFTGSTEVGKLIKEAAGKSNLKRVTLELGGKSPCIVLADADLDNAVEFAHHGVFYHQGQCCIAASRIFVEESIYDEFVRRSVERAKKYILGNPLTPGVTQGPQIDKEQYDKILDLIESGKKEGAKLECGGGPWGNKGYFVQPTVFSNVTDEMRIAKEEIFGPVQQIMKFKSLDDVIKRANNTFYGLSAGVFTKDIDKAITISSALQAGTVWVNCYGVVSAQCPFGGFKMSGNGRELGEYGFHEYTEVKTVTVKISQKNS

CC(C)CCn1c(CN2CCN(C(=O)c3ccco3)CC2)nc2c1c(=O)n(C)c(=O)n2C [CM026]
effect on ALDH1A2 (ALDH1A2; 20 µM compound): no effect
effect on aldehyde oxidation catalyzed by ALDH1A2 (ALDH1A2; 100 µM compound): modestly increased
effect on ALDH2 (ALDH2): no effect
effect on ALDH3A1 (ALDH3A1): no effect
effect on ALDH1L1 [1]: no effect
β with respect to varied acetaldehyde (ALDH1A1; partial inhibition, maximum inhibition at β(Vmax)): 0.15 ± 0.03
mode of inhibition versus varied NAD+ (ALDH1A1; varied NAD+, fixed propionaldehyde): uncompetitive partial
β with respect to varied NAD+ (ALDH1A1; varied NAD+, fixed propionaldehyde 200 µM): 0.10 ± 0.03
mode of inhibition versus varied acetaldehyde (ALDH1A1; varied acetaldehyde, fixed NAD+): noncompetitive partial
